Test results as given in ChEMBL document CHEMBL3272105, “Quantitative structure-activity studies on monoamine oxidase inhibitors” (J Med Chem, 1976).

Legend:
[1] = Octanol-water partition coefficient, log P of the compound; type: physicochemical
Rattus norvegicus = assay: Ratio of compound to iproniazid for in vivo inhibition of monoamine oxidase in rat brain assessed as increase in serotonin production after 16 hrs; type: functional

| SMILES | logP ([1]; read-out: logP) | Ratio (Rattus norvegicus) | logP [1] |
| --- | --- | --- | --- |
| CC(C)NNC(=O)c1cccs1 | 1.61 | 198 | – |
| CC(C)NNC(=O)c1ccsc1 | 1.61 | 192 | – |
| CC(C)NNC(=O)c1ccccn1 | 0.32 | 191 | – |
| CC(C)NNC(=O)c1ccco1 | – | 156 | – |
| CC(C)NNC(=O)c1cnccn1 | – | 152 | – |
| CC(C)NNC(=O)c1ccc(Cl)cc1 | 2.84 | 134 | – |
| CC(C)NNC(=O)c1cccc([N+](=O)[O-])c1 | 1.85 | 125 | – |
| CC(C)NNC(=O)c1cccc(Cl)c1 | 2.84 | 123 | – |
| CC(C)NNC(=O)c1cccnc1 | 0.32 | 111 | – |
| CC(C)NNC(=O)c1ccc(C(C)C)cc1 | 3.66 | 97 | – |
| CC(C)NNC(=O)c1cc[nH]n1 | – | 84 | – |
| Cc1ccc(C(=O)NNC(C)C)cc1C | 3.25 | 76 | – |
| COc1ccc(C(=O)NNC(C)C)cc1 | 2.11 | 63 | – |
| CC(C)NNC(=O)c1ccccc1N | 0.9 | 60 | – |
| Cc1ncsc1C(=O)NNC(C)C | 0.44 | 38 | – |
| CC(C)NNC(=O)c1c[nH]nn1 | – | 38 | – |
| CC(C)NNC(=O)c1ccc(N)cc1 | 0.9 | 15 | – |
| CC(C)NNC(=O)c1ccc(O)cc1 | 1.46 | 11 | – |
| CC(C)NNC(=O)c1cccnn1 | – | 0 | – |
| CC(C)NNC(=O)c1ccccc1O | 1.46 | 0 | – |
| Cc1ncc(C(=O)NNC(C)C)c(C)n1 | -0.4 | 0 | – |
| Cc1noc(C)c1C(=O)NNC(C)C | 1.2 | 0 | – |
| CC(C)NNC(=O)c1ccncc1 [IPRONIAZID] | – | 100 | 0.32 |
